Like-named read-outs stand apart in the source and are kept apart here. Numbered stars: 1 amine (or outer) side, 2 acyl side, 3 side chain; on linkers, the order of the positions; unused ones are H or OH. Bridge positions count the residues as written; N and C are the ends. Square brackets hold non-standard residues; d marks the D form. Ends that are not written are not given here. Peptide text beside a SMILES is read from it. * marks the point of attachment. hTyr(3S-OH,4S-OH,3'-OSO3H) = N[C@H](C(=O)O)[C@H](O)[C@@H](O)c1ccc(O)c(OS(=O)(=O)O)c1; pTerphenylCO(4''-OnC5H11) = CCCCCOc1ccc(-c2ccc(-c3ccc(C(=O)*)cc3)cc2)cc1; Orn(4R-OH,5R-OH) = O=C([C@H](C[C@@H](O)[C@@H](O)N[*:3])N[*:1])[*:2]; hTyr(3S-OH,4S-OH) = N[C@H](C(=O)O)[C@H](O)[C@@H](O)c1ccc(O)cc1; Pro(3S-OH,4S-Me) = C[C@H]1CN[C@H](C(=O)O)[C@H]1O; X1 = CCCCCOc1ccc(-c2cc(-c3ccc(C(=O)*)cc3)no2)cc1; Gln(3R-OH) = NC(=O)C[C@@H](O)[C@H](N)C(=O)O; Hyp = O=C(O)[C@@H]1C[C@@H](O)CN1; Abu = CC[C@H](N)C(=O)O
Assays:
[1] = HsLin06_18 cytotoxicity assay (MTT); type: cell-based; settings: human, 24 h treatment, relative to 1% DMSO control, read-out: EC50 (half maximal effective concentration), cytotoxicity
Description: Drug cytotoxicity testing was performed as described previously (Vriens et al., [2015b]). Briefly, human hepatoma (HepG2) cells were treated for 24 h with caspofungin, HsLin06_18, its combination or control treatment (1% DMSO). Cell viability was determined by MTT staining (Roche Diagnostics, Germany) and expressed relative to the control treatment. All experiments were performed in quadruplicate with at least three biological repeats.

[2] = tested on: C. albicans caspofungin-resistant mutant M177 (fks1 mutant) biofilms; settings: fks1 mut
candidiasis = settings: administered systemically at 7 or 14 mg/kg/day; ref Tavares et al., 2008; cited from earlier work
[3] = tested on: Candida albicans biofilms; assay: In vitro biofilm inhibition assay in microtiter plates (XTT quantification); type: cell-based; settings: caspofungin alone, n = 3, read-out: BIC50 (CASPO) ± SEM
[4] = tested on: Candida dubliniensis biofilms; assay: as above; type: cell-based; settings: caspofungin alone, n = 3, read-out: BIC50 (CASPO) ± SEM
Candida krusei biofilms = assay: as above; type: cell-based; settings: Pichia kudriavzevii, caspofungin alone, n = 3, read-out: BIC50 (CASPO) ± SEM
[5] = tested on: Candida glabrata biofilms; assay: as above; type: cell-based; settings: Nakaseomyces glabratus, caspofungin alone, n = 3, read-out: BIC50 (CASPO) ± SEM
[6] = tested on: C. albicans SC5314 WT planktonic cells; assay: Fungicidal activity assay (plating, CFU) on planktonic cells; type: cell-based, Candida albicans; settings: caspofungin alone, concentrations up to 50 μM, one representative experiment out of 2
Description: […] Both at the start and at all measuring points, surviving yeast cells was determined via plating assays. In a plating assay, 10-fold dilution series of yeast cells in PBS were prepared, after which 100 μL was plated on YPD plates. After 1 day of incubation at 37°C, the number of colony forming units (CFU) was counted and cell death was calculated relative to time zero (t0). MFC50 values, indicating the minimum fungicidal concentration resulting in 50% cell death, were determined. In parallel with the plating assay, confocal microscopic or flow cytometric analysis were performed on the samples.

[7] = tested on: planktonic C. albicans SC5314 WT cells; assay: Flow cytometry: HsLin06_18-FITC uptake and membrane permeabilization (PI); type: cell-based, Candida albicans; settings: 0.01 μM caspofungin alone; vs t0
Description: (§1) Membrane permeabilization and HsLin06_18 internalization were determined via flow cytometric analysis on planktonic C. albicans SC5314 WT cells. Exponentially growing cells were exposed to caspofungin ([…]), HsLin06_18-FITC (4.6 μM) or its combination (as described in the material and methods section “fungicidal activity assay”), and to propidium iodide (PI) (2 μg/mL), after which they were subjected to flow cytometry on a BD Influx™ cell sorter. Per treatment, 10,000 cells were monitored for fluorescence at 530/40 nm (FL2_λex = 488 nm) and 610/20 nm (FL11_ λex = 561 nm) for the detection of HsLin06_18-FITC internalization (FITC+) and membrane permeabilization (PI+), respectively. Data from cells treated with 4.6 μM HsLin06_18-FITC were used as background signal.

[8] = tested on: planktonic Candida albicans fks1 mutant cells; assay: Flow cytometry: HsLin06_18-FITC uptake and membrane permeabilization (PI), fks1 mutant; type: cell-based; settings: caspofungin (0.5 μM) alone; 40 minutes; n = 3
Description: as §1
[picture] Supplementary Figure S3: HsLin06_18-FITC uptake and membrane permeabilization in planktonic Candida albicans WT and fks1 mutant cells, determined via flow cytometry. Cells were treated for 40 minutes with 0.5 µM caspofungin and/or […] HsLin06_18-FITC (HsL-F) and 2 µg/mL propidium iodide (PI). […]

[9] = tested on: C. albicans biofilms on serum pre-incubated polyurethane catheters; assay: In vitro biofilm inhibition assay on catheters; type: cell-based, Candida albicans; settings: 24 h treatment; CFU
Description: Polyurethane catheters, overnight incubated in bovine serum, were infected with C. albicans or C. glabrata cells (5 × 10^4 cells/mL) in RPMI medium (Kucharikova et al., [2015]). […] All experiments were performed in quadruplicate with at least three biological repeats.

[10] = tested on: Candida albicans biofilms; assay: microbe, parasite or virus in culture
[11] = tested on: C. albicans caspofungin-resistant mutant M177 (fks1 mutant) biofilms; assay: microbe, parasite or virus in culture; settings: Candida albicans, read-out: BIC50 (CASPO) ± SEM
[12] = tested on: C. albicans biofilms on catheter pieces; assay: In vivo biofilm inhibition assay, subcutaneous rat catheter model; settings: intravenously (IV) administered, once daily for 7 days; CFU
Description: All animal experiments were in accordance with the KU Leuven animal care guidelines and approved by the Ethical Committee of the KU Leuven (P069/2016). In vivo C. albicans biofilms were formed inside catheter pieces in immunosuppressed female Sprague–Dawley rats (200 g) as described previously (Ricicova et al., [2010]). Briefly, serum pre-incubated catheters were infected with C. albicans cells (5 × 10^4 cells/mL) prepared in RPMI medium during the adhesion period (90 min at 37°C). After a washing step, 9 catheter pieces were implanted into the back area of one rat. Inhibition of in vivo C. albicans biofilm formation was initiated immediately after the implant. […] Catheters were explanted from euthanized animals and the number of cells per individual biofilm was determined by CFU (Ricicova et al., [2010]). In vivo experiments were performed once (in total three animals/group).

[13] = tested on: Candida albicans biofilms; settings: Caspofungin + HsLin; microtiter plate; means for n ≥ 2
[14] = read-out: BIC50 (echinocandin) ± SEM

CC[C@H](NC(=O)[C@H](C)NC(=O)CNC(=O)CNC(=O)[C@H](Cc1ccc(O)cc1)NC(=O)[C@H](C)NC(=O)[C@@H](N)Cc1ccccc1)C(=O)N[C@@H](Cc1c[nH]cn1)C(=O)N[C@@H](Cc1ccc(O)cc1)C(=O)N[C@@H](CCC(N)=O)C(=O)N[C@@H](Cc1ccccc1)C(=O)N1CCC[C@H]1C(=O)N[C@@H](CO)C(=O)N[C@H](C(=O)N[C@@H](CCCCN)C(=O)N[C@@H](CC)C(=O)N[C@@H](Cc1ccccc1)C(=O)N[C@@H](CC)C(=O)N[C@@H](CCCCN)C(=O)O)C(C)C [HsLin06_18] (H-FAYGGA[Abu]HYQFPSVK[Abu]F[Abu]K-OH) gave an EC50 at 24 h [1] of over 50000 nM, an FICI ([2]; caspofungin + 2.5 µM HsLin06_18) of under 0.5 and an FICI ([2]; caspofungin + 5 µM HsLin06_18) of under 0.5.

In the case of “RsAFP2: plant defensin (QKLCQRPSGTWSGVCGNNNACKNQCIRLEKARHGSCNYVFPAHKCICYFPC; ends and bridges not checked; cysteine pairing not given here; UniProt P30230 30-80, looked up)”, the “in vivo efficacy against candidiasis” value (candidiasis) is given as “prophylactically effective”.

CC[C@H](C)C[C@H](C)CCCCCCCCC(=O)N[C@H]1C[C@@H](O)[C@@H](NCCN)NC(=O)[C@@H]2[C@@H](O)CCN2C(=O)[C@H]([C@H](O)CCN)NC(=O)[C@H]([C@H](O)[C@@H](O)c2ccc(O)cc2)NC(=O)[C@@H]2C[C@@H](O)CN2C(=O)[C@H]([C@@H](C)O)NC1=O [Caspofungin] gave an IC50 [3] of 700 ± 92 nM, an IC50 [4] of 920 ± 17 nM and an IC50 (Candida krusei biofilms) of 1090 ± 12 nM. The IC50 [5] was 1000 ± 115 nM, the cell death [6] was 30% and the “population of cells with compromised membranes” value [7] was “not significantly increased after 40 min”. For the same molecule, the “cells with permeabilized membranes” value [8] was under 0.2%, the “sub-lethal dose in the in vitro catheter setup” value [9] was 0.4 µM and the IC50 ([10]; read-out: BIC50 (CASPO) ± SEM) was 830 ± 96 nM. The IC50 [10, 14] was 960 ± 40 nM, the IC50 [11] was 7400 ± 1360 nM and the “sub-lethal dose in the subcutaneous rat catheter model” value [12] was 0.25 mg/kg/day.

In the case of CCCCCOc1ccc(-c2ccc(-c3ccc(C(=O)N[C@H]4C[C@@H](O)[C@@H](O)NC(=O)[C@@H]5[C@@H](O)[C@@H](C)CN5C(=O)[C@H]([C@@H](C)O)NC(=O)[C@H]([C@H](O)[C@@H](O)c5ccc(O)cc5)NC(=O)[C@@H]5C[C@@H](O)CN5C(=O)[C@H]([C@@H](C)O)NC4=O)cc3)cc2)cc1 [Anidulafungin] ({pTerphenylCO(4''-OnC5H11)}-[Orn(4R-OH,5R-OH)]T[Hyp][hTyr(3S-OH,4S-OH)]T[Pro(3S-OH,4S-Me)]; lactam 1-C), the IC50 [10, 14] is reported as 930 ± 120 nM.

In the case of “FAYGGACHYQFPSVKXFCK (disulfide) [HsLin06_18_20]”, the “Fold change (reduction of the BIC50 of caspofungin by co-incubation with HsLin06_18 or HsLin06_18-variants)” value [13] is reported as 1.97.

In the case of “FAYGGACHYQFPSVKCFXK (disulfide) [HsLin06_18_22]”, the “Fold change (reduction of the BIC50 of caspofungin by co-incubation with HsLin06_18 or HsLin06_18-variants)” value [13] is reported as 1.77.

For CCCCCOc1ccc(-c2cc(-c3ccc(C(=O)N[C@H]4C[C@@H](O)[C@@H](O)NC(=O)[C@@H]5[C@@H](O)[C@@H](C)CN5C(=O)[C@H]([C@H](O)CC(N)=O)NC(=O)[C@H]([C@H](O)[C@@H](O)c5ccc(O)c(OS(=O)(=O)O)c5)NC(=O)[C@@H]5C[C@@H](O)CN5C(=O)[C@H]([C@@H](C)O)NC4=O)cc3)no2)cc1 [Micafungin] (X1-[Orn(4R-OH,5R-OH)]T[Hyp][hTyr(3S-OH,4S-OH,3'-OSO3H)][Gln(3R-OH)][Pro(3S-OH,4S-Me)]; lactam 1-C), the IC50 [10, 14] was 400 ± 88 nM.
